Experimental data taken from publication PMC9028786, “The Ribosome Is the Ultimate Receptor for Trypsin Modulating Oostatic Factor (TMOF)” (Biomolecules, 2022).
Where two headings read alike, the source gives them in different places. Ends that are not written are not given here.

What was measured:
[1] = tested on: bacterial 70 S ribosome; assay: Inhibition of luciferase translation in E. coli S30 extract; type: biochemical, Escherichia coli; settings: 2 h at 37 °C
Experimental: To test the effect of AeaTMOF and Oncocin112 (1–13) on the translation of Luciferase by the bacterial 70 S ribosome, an E. coli S30 lysate extract system for circular DNA (Promega) containing a plasmid pBestluc DNA vector (4486 bp) (1 mg/mL) 0.3 μL, amino acid mixture without methionine (1 mM) 1.25 μL, amino acid mixture without Leucine (1 mM) 1.25 μL, S30 premix (including ribosomes) without amino acids 5 μL, S30 extract circular 3.5 μL, RNasin (8 U, 112 ng) 0.2 μL, different concentrations of AeaTMOF or Oncocin112 (1–13) (0.001 μM to 1000 μM), and nuclease-free water to a volume of 12.5 μL were incubated for 2 h at 37 °C. […] After incubation, 87.5 μL of GLO lysis buffer (Promega) containing beetle luciferin was added, mixed, and aliquots (5 μL) were removed, and their luminescence read in a GLOMAX multidetector system. […] The decrease in luminescence (% ± SEM) in the presence of increasing log AeaTMOF or Oncocin112 (1–13) concentrations was then plotted using GrapPad Prism 3.

[2] = tested on: S. frugiperda 80S ribosomes; assay: Inhibition of larval Ae. aegypti late trypsin translation in TnT T7 insect cell extract; type: biochemical, Spodoptera frugiperda; settings: TnT T7 insect cell extract from S. frugiperda Sf21, pFA25A ICE T7 flexi-late larval trypsin, [3H]leucine, 30 °C, 4 h, AeaTMOF 0.01–750 μM; mean of three determinations; linear regression; read-out: IC50, inhibition of Ae. aegypti late larval [3H]trypsin biosynthesis
[3] = tested on: E. coli CGSC strain7636 cells expressing SbmA^+; assay: Growth/viability of E. coli CGSC strain7636 expressing SbmA; type: cell-based, Escherichia coli; settings: 3 and 10 mM peptide, 37 °C, 18 h, p < 0.05 vs control
Experimental: (§1) We aimed to find out if AeaTMOF can also stop bacterial growth as, was shown for the proline-rich Oncocin112 that binds to the bacterial ribosome, stopping protein translation, bacterial growth, and causing bacterial death. E. coli CGSC strain7636 (2.7 × 10^4 cells) SbmA^+, expressing the proline-rich peptides importer SbmA, were incubated in 96-well plate containing 100 μL/well of LB medium, 0.4 mM of IPTG, 0.1 mM of ampicillin, and different concentrations of AeaTMOF and Oncocin112 (1–13) (3 mM and 10 mM) in different wells. The 96-well plate was incubated at 37 °C for 18 h and bacterial growth was followed at 630 nm using Biotech ElX808 absorbance microplate reader. Control wells contained bacterial cells growing without AeaTMOF or oncocin112 (1–13). […] After the incubations in the presence of Oncocin112 (1–13) or AeaTMOF of 10 mM and 3 mM, aliquots (0.5 μL) were removed from each well and spread on LB agar plates containing 0.1 mM of ampicillin, and the plates were incubated overnight at 37 °C and viable colonies were counted. Incubations were done in triplicates and the experiments were repeated twice. Results are expressed as means of three determinations ± SEM.

[4] = tested on: E. coli mutant cells CGSC strain 8547 SbmA^- expressing only ABC-tmfA importer; assay: Growth/viability of E. coli mutant CGSC strain 8547 SbmA^- expressing ABC-tmfA importer; type: cell-based, Escherichia coli
Experimental: E. coli CGSC strain […] lacking the SbmA importer expressing the ABCtmfA receptor/importer was prepared using plasmid pTAC-MAT-2 ABCtmfA importer/receptor as described earlier. [3,4,5 ^3H]Leucine 250 μCi, Spc Act 100–150 Ci/mmol was purchased from Perkin Elmer (Waltham, MA, USA). AeaTMOF-FITC (H-YDPAPPPPPPK(FITC)K-OH) was synthesized at the University of Colorado Anschutz School of Medicine protein core. AeaTMOF-FITC was purified by HPLC showing a single peak, and mass spectrometry analysis of the peak identified the 3 expected ions at 455.7, 607.3, and 910.3, showing an expected Mr 1019.56 as was described earlier. Synthetic AeaTMOF (H-YDPAPPPPPP-OH) and a short Oncocin112(1–13) (H-VDKPPYLPRPRPP-OH), a 13 amino acids oncocin112 peptide, 6 amino acids shorter than the original oncocin112 of 19 amino acids, were synthesized and purified by HPLC [16]. After HPLC purifications of AeaTMOF, oncocin112 (1–13), and AeaTMOF-FITC, the TFA ions were exchanged with phosphate ions.
as §1

[5] = tested on: luciferase; assay: Effect on activity of pre-synthesized luciferase; type: biochemical, Beetle; settings: S30 extract with pBESTluc for 4 h without peptide, then AeaTMOF 1 to 100 μM added; results not shown
Experimental: Incubations of E. coli S30 extract synthesizing Beetle luciferase in the presence of an increasing concentration of AeaTMOF (0.001 to 750 μM) stopped the biosynthesis of luciferase, diminishing its activity on Beetle luciferin as measured in luminescence units. The activity of the in vitro synthesized luciferase on Beetle luciferin at very low concentration of AeaTMOF (0.001 μM) was similar to luciferase activity without AeaTMOF, and this luminescence was used to calculate the decrease in luminescence (%) after incubation with increasing concentrations of AeaTMOF (Figure 1A). Higher concentrations of AeaTMOF (higher than 0.001 μM) caused a linear decrease in the synthesis of luciferase and a decline in luminescence (%) reaching IC50 (inhibition concentration of 50%) at 1 μM (Figure 1A). […] AeaTMOF is not an inhibitor of luciferase.

[6] = tested on: late trypsin transcript in the gut epithelial cells; settings: circulating in hemolymph of females after the blood meal; cited from earlier work
Excerpt: (§2) Aedes aegypti Trypsin Modulating Oostatic Factor (AeaTMOF), a proline-rich peptide (YDPAPPPPPP), was originally isolated from the ovaries of female Ae. aegypti. AeaTMOF controls the biosynthesis of trypsin-like enzymes in the midgut epithelial cells of several species of mosquito including Aedes. aegypti, Culex quinquefasciatus, Culex. nigripalpus, and Anopheles albimanus. […] AeaTMOF was also ...

[7] = tested on: late trypsin transcript; settings: cited from earlier work
Excerpt: as §2

[8] = tested on: ABC-tmfA transporter (accession number MK895491); settings: cited from earlier work
Excerpt: (§3) Several of these ABC transporters with 80–100% similarity with the AeaTMOF receptor are also found in several Aedes, Anopheles, and ...

[9] = tested on: Ae. aegypti larvae; settings: fed AeaTMOF expressed by engineered Chlorella desiccate, Saccharomyces cerevisiae, and Pichia pastoris; cited from earlier work
Excerpt: as §3

[10] = tested on: trypsin mRNA in the gut epithelial cells; settings: gut epithelial cells of Ae. aegypti and Neobellieria bullata; cited from earlier work
Excerpt: as §3

[11] = tested on: female mosquitoes; settings: injection after blood meal; cited from earlier work

**Q.** What does the source list for YDPAPPPPPP [AeaTMOF]?
**A.** Inhibition of luciferase biosynthesis at lowest concentration ([1]; AeaTMOF at 0.001 μM, Oncocin112 (1–13) at 0.01 μM): do not inhibit the biosynthesis of luciferase; Concentration of complete inhibition of luciferase biosynthesis ([1]; E. coli S30 extract, luminescence): 250 to 750 µM; IC50 ([1]; E. coli S30 lysate, pBestluc DNA, peptide 0.001 to 750 μM, luminescence read-out, mean of three determinations, read-out: IC50, inhibition of luciferase biosynthesis (luminescence)): 1000 nM; IC50 [2]: 1800 nM; E. coli growth ([3]; 630 nm): significantly inhibited the growth of the E. coli cells; Viable colonies at end of incubation ([3]; initial 2.7 × 10^4 cells, LB medium, plated on LB agar, triplicates): 4–10 colonies; E. coli growth ([4]; SbmA^- cells expressing ABC-tmfA importer, 3 and 10 mM peptide, 37 °C, 18 h, 630 nm, p < 0.05 for inhibition): significantly (p < 0.05) inhibited; E. coli cell growth (discussion) ([4]; cells that only expressed ABCtmfA receptor/importer, up to 10 mM): inhibiting protein synthesis and cell growth; Importer used ([4]; inferred from growth of SbmA^+ and SbmA^- ABC-tmfA E. coli, 3 and 10 mM): can use the mosquito ABCtmfA importer, as well as the bacterial SbmA importer; Effect on activity of luciferase synthesized in vitro [5]: did not affect the activity of luciferase; Effect on translation of late trypsin transcript [6]: affects the translation of the late trypsin transcript in the gut epithelial cells; Inhibition of translation of late trypsin transcript ([7]; AeaTMOF expressed on coat protein of Tobacco Mosaic Virus, fed to insects): stopped the translation of the trypsin transcript in the gut epithelial cells; Inhibition of translation of late trypsin transcript [7]: inhibit the translation of the late trypsin transcript; Binding to gut receptor/importer [8]: binds a gut-specific receptor ABC-tmfA transporter; Effect on larvae [9]: stopped larval trypsin biosynthesis and caused larval starvation and death; Effect on translation of trypsin mRNA [10]: stop the translation of trypsin mRNA; Effect on blood-fed female mosquitoes [11]: only inhibits trypsin biosynthesis, and as a result the blood meal is not digested and egg development is inhibited, making the female mosquitoes sterile but not killing them
